# Patent US20230340364A1, “Fabric Softening Compositions” (Colgate-Palmolive Company, priority 2020, published 2023)
# Assay: Dispersibility of the preservative into the finished product
# Type: physicochemical
# Conditions: preservative post-added (IPBC 0.2%, DGH 0.1%)
# Method: For 90 kg batch, initial 20% of water is heated to 47.7° C., the agitation is set to 32.5 Hz, then color (1 min of agitation), lactic acid (1 min of agitation), etidronic acid (1 min of agitation) and PQ7 (3 min of agitation) is added. Afterward, the pre-heated esterquat at 60-65° C. is added for 10 seconds and mixture for 5 min. After esterquat addition, the 75% of the remaining water (15° C.) is added and mixed for 5 min more. The final composition is completed with the addition of the rest of the components keeping the agitation at 35 Hz; thickener (10 min of agitation), blend of slurry fragrance capsules (water/capsules; 10:1) (5 min of agitation) and oil perfume (10 min of agitation). For the reference sample, 5% of additional water is post-added to the mixture (5 min of agitation). In the case of the control sample, 0.02% of DPIII is post added with the remaining water to cover the % of hole (5 min of agitation). For the alternative test compositions with IPBC, IPBC is post-added at 0.2% as is. […]
# The negative control, positive control, Test composition 1, and Test composition 2, described in Table 1 of Example 1 are first evaluated for their dispersibility into the product and their impact on the viscosity, pH and stability (predictive methods). […] No significant difference in viscosity, pH and stability are identified for all the evaluated samples.
structure (smiles),measurement,value
"CCCCNC(=O)OCC#CI [IPBC, 3-iodo-2-propynyl butylcarbamate]",dispersibility by being directly post-added into the finished product,acceptable dispersibility
"CCCCCCCCCCCCNC(=N)N.Cl [DGH, Dodecylguanidinee Hydrochloride]",dispersibility by being directly post-added into the finished product,acceptable dispersibility
